Data published in ChEMBL document CHEMBL5500373, “Lead optimization based design, synthesis, and pharmacological evaluation of quinazoline derivatives as multi-targeting agents for Alzheimer's disease treatment” (Eur J Med Chem, 2024).
Activity calls are given as the source filed them. No cut-off for these calls is given here.

Key:
[1] = biological target: T1, Beta-secretase 1 (Homo sapiens, UniProt P56817); assay: Inhibition of human BACE-1 measured after 2 hrs by FRET assay
[2] = biological target: T2, Acetylcholinesterase (Homo sapiens, UniProt P22303); assay: Inhibition of human erythrocyte AChE using acetylthiocholine iodide as substrate preincubated for 30 mins followed by substrate addition and measured after 30 mins by DTNB based Ellman's method
T2 sequence (P22303 whole entry): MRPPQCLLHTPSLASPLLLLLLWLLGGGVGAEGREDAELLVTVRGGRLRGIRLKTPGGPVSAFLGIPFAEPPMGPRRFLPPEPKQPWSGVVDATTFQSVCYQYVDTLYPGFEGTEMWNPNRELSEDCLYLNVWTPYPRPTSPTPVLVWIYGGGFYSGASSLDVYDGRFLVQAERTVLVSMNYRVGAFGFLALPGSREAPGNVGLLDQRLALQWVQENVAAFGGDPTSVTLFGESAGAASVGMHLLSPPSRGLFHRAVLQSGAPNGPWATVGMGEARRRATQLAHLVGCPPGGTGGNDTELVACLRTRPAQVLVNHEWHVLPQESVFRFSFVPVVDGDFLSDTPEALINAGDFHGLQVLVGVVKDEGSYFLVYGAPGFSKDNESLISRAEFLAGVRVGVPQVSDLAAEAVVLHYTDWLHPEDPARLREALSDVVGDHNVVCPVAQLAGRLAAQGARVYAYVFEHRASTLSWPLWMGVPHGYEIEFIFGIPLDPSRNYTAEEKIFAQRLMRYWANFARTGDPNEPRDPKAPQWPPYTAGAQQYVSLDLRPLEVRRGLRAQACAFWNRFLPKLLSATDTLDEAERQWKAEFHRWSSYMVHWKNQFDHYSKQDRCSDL

[3] = biological target: T3, Cholinesterase (Homo sapiens, UniProt P06276); assay: Inhibition of human serum BChE using butyrylthiocholine iodide as substrate preincubated for 30 mins followed by substrate addition and measured after 30 mins by DTNB based Ellman's method
T3 sequence (P06276 whole entry): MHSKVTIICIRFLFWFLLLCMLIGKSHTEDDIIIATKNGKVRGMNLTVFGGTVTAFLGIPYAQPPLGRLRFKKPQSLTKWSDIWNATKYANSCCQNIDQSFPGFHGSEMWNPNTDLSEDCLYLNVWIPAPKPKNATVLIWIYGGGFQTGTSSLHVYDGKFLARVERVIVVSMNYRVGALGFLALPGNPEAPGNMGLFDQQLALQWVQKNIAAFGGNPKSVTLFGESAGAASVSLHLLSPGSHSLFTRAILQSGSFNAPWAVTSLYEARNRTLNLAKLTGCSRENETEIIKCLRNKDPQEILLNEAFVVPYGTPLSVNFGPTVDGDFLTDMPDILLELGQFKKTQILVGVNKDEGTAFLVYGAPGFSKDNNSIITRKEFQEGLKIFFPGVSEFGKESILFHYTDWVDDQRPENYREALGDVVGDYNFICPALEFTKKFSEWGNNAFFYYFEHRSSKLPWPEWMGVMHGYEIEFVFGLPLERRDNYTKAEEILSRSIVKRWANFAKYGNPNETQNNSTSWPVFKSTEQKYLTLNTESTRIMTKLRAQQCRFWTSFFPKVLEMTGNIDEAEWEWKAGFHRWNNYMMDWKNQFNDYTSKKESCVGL

[4] = biological target: T1, Beta-secretase 1; assay: Inhibition of C-terminal 10-His tagged recombinant human BACE-1 using Mca-Ser-Glu-Val-Asn-Leu-Asp-Ala-Glu-Phe-Arg-Lys(Dnp)-Arg-Arg-NH2 as substrate pretreated for 10 mins followed by substrate addition and measured every 5 mins for 120 mins
[5] = Cytotoxicity against human SH-SY5Y cells by MTT assay; type: toxicity, cell-based
[6] = biological target: T1, Beta-secretase 1; assay: Inhibition of BACE-1 in human SH-SY5Y cells transfected with human APP695 measured after 24 hrs by ELISA; type: cell-based
[7] = biological target: Cholinesterase (Equus caballus) (UniProt P81908); assay: Inhibition of horse serum BChE at 100 uM preincubated for 10 mins followed by substrate addition and measured after 15 mins by Ellman's method relative to control; conditions: time 25.0 min
Chain of Cholinesterase (Equus caballus) (P81908 whole entry, the tested form may be a part): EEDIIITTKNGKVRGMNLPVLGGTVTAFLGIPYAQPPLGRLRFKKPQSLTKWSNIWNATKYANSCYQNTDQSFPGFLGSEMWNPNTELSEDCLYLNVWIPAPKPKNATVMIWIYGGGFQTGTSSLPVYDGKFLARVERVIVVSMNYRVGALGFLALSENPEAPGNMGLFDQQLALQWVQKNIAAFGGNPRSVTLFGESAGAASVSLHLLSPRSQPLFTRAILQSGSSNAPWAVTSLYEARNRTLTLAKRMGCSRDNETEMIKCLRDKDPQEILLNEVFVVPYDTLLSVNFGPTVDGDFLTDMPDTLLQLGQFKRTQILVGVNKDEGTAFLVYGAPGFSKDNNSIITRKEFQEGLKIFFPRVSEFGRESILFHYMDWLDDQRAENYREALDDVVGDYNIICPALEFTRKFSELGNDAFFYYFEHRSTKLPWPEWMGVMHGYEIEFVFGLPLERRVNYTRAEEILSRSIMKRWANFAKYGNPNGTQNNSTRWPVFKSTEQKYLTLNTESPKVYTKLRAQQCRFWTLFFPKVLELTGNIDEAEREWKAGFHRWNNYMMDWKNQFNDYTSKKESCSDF

[8] = biological target: Amyloid-beta precursor protein (Homo sapiens) (UniProt P05067); assay: Inhibition of amyloid beta (1 to 42 residues) (unknown origin) aggregation assessed as reduction in massive oligomers measured after 3 days by AFM analysis; conditions: time 3.0 day
Chain of Amyloid-beta precursor protein (Homo sapiens) (P05067 whole entry, the tested form may be a part): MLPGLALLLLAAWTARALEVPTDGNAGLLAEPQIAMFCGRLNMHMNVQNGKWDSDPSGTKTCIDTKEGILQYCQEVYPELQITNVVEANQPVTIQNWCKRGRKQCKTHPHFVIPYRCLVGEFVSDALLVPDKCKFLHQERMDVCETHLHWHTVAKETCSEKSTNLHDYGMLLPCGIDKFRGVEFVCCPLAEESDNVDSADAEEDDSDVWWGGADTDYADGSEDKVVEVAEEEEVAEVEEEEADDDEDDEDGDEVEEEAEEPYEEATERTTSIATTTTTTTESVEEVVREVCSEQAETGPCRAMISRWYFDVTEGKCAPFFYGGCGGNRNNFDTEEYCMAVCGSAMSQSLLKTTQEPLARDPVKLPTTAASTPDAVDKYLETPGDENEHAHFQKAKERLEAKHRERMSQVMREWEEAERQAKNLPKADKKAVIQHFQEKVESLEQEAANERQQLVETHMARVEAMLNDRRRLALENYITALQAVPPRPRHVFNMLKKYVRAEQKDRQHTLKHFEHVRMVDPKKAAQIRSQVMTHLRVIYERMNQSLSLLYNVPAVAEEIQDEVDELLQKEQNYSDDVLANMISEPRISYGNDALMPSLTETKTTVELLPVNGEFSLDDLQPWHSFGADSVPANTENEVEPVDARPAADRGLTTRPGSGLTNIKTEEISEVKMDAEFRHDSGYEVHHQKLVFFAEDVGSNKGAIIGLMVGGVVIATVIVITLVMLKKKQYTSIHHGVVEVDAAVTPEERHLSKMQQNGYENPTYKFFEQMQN

[9] = biological target: Amyloid-beta precursor protein (Homo sapiens) (UniProt P05067); assay: Inhibition of amyloid beta (1 to 42 residues) (unknown origin) aggregation assessed as reduction in fibrils measured after 3 days by AFM analysis; conditions: time 3.0 day
[10] = in vitro; conditions: PAMPA
[11] = biological target: T1, Beta-secretase 1; assay: Inhibition of human BACE-1 by FRET assay
[12] = biological target: T2, Acetylcholinesterase; assay: Inhibition of AChE (unknown origin) at 10 uM relative to control
[13] = biological target: T3, Cholinesterase; assay: Inhibition of BChE (unknown origin) at 10 uM relative to control
[14] = Antioxidant activity assessed as DPPH radical scavenging activity incubated for 30 mins in dark by UV/visible spectrophotometric analysis; type: functional
[15] = Drug concentration in male Wistar rat brain homogenate at 10 mg/kg, po measured after 4 days; type: ADME, organism-based; conditions: time 4 day, read-out: Ct
[16] = Drug concentration in male Wistar rat brain homogenate at 20 mg/kg, po measured after 4 days; type: ADME, organism-based; conditions: time 4 day, read-out: Ct
[17] = biological target: T2, Acetylcholinesterase; assay: Inhibition of human AChE
[18] = biological target: T3, Cholinesterase; assay: Inhibition of human BChE
[19] = biological target: T1, Beta-secretase 1; assay: Inhibition of human BACE-1
[20] = biological target: T2, Acetylcholinesterase; assay: Inhibition of AChE (unknown origin)
[21] = test system: PC-12; assay: Neuroprotective activity against amyloid beta (1 to 42 residues) induced cell damage in rat PC12 cells at 100 uM by MTT assay relative to control; type: functional
[22] = biological target: Amyloid-beta precursor protein (Homo sapiens) (UniProt P05067); assay: Inhibition of self induced amyloid beta (1 to 42 residues) (unknown origin) aggregation at 10 uM by thioflavin T based fluorescence analysis relative to control

T1 sequence (P56817 whole entry): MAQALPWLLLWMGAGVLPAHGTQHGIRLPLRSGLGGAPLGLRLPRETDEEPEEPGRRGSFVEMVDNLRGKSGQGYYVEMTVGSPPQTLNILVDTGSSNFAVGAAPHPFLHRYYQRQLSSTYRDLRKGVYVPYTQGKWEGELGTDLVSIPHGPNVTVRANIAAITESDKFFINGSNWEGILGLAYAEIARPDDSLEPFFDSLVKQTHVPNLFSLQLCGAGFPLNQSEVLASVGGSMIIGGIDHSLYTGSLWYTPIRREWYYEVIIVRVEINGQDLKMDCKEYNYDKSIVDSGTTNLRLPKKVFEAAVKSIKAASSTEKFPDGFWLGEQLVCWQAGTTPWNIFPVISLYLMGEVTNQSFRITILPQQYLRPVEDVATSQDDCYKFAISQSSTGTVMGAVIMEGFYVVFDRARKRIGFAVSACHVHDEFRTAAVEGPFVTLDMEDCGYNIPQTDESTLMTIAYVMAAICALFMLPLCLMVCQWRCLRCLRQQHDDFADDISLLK

Row | Compound | IC50 [1] [µM] | IC50 [2] [µM] | IC50 [3] [µM] | also measured
1 | COc1cc2ncnc(N3CCN(C(C)=O)CC3)c2cc1OC | 3.66 | 1.19 | > 10 | 
2 | COc1cc2ncnc(N3CCN(c4ccc(C)cc4)CC3)c2cc1OC | 1.88 | 1.17 | > 10 | 
3 | COc1cc2ncnc(N3CCN(c4ccccn4)CC3)c2cc1OC | 1.56 | 1.15 | > 10 | 
4 | COc1cc2ncnc(N3CCN(Cc4ccc(F)cc4)CC3)c2cc1OC | 2.92 | 0.932 | > 10 | 
5 | COc1cc2ncnc(N3CCN(c4ccc(F)cc4)CC3)c2cc1OC | 1.47 | 1.04 | > 10 | 
6 | COc1cc2ncnc(N3CCN(Cc4ccc(C)cc4)CC3)c2cc1OC | 1.43 | 1.02 | > 10 | 
7 | CC1c2cc(Oc3ccccc3)ccc2N=C(N)N1CCCC(=O)N(Cc1ccnn1C)C1CCCCC1 (centres undefined) |  |  |  | IC50 [4]: 0.38 µM; IC50 [5]: 11.8 µM; IC50 [6]: 0.14 µM
8 | Cc1ccccc1-n1c(SCC(=O)N/N=C/c2ccc(Br)cc2)nc2ccccc2c1=O |  |  |  | inhibition [7]: 6.8%
9 | COc1cc2ncnc(N3CCN(c4ccc(Br)cc4)CC3)c2cc1OC | 1.71 | 0.973 | > 10 | 
10 | COc1cc2ncnc(N3CCN(c4ccccc4)CC3)c2cc1OC | 1.31 | 1.01 | > 10 | 
11 | COc1cc(/C=C/C(=O)CC(=O)/C=C/c2ccc(O)c(OC)c2)ccc1O |  |  |  | inhibition [8]: Active; inhibition [9]: Active
12 | COc1cc2ncnc(N3CCN(C(c4ccccc4)c4ccccc4)CC3)c2cc1OC | 0.662 | 0.436 | > 10 | Papp at 18 h, 25 ug/ml [10]: 62.8 nm/s
13 | FC(F)(F)c1ccc(-c2nnc(NC3CCN(Cc4ccccc4)CC3)o2)cc1 |  |  |  | IC50 [11]: 0.146 µM
14 | COc1cc2ncnc(N3CCN(C)CC3)c2cc1OC | 3.28 | 1.27 | > 10 | 
15 | C#CCN(C)c1nc(NC2CCCCC2)c2ccc(Cl)cc2n1 |  |  |  | inhibition [12]: 3%; inhibition [13]: 3%
16 | COc1cc2ncnc(N3CCN(c4ccc([N+](=O)[O-])cc4)CC3)c2cc1OC | 0.729 | 0.481 | > 10 | Papp at 18 h, 25 ug/ml [10]: 48.1 nm/s
17 | Cn1c(N/N=C/c2cccc(Cl)c2Cl)nc2ccccc2c1=O |  |  |  | IC50 [14]: > 100 µM
18 | COc1cc2ncnc(N3CCN(c4ccccc4[N+](=O)[O-])CC3)c2cc1OC | 1.82 | 0.914 | > 10 | 
19 | c1ccc(CN2CCN(c3nc(-c4ccccc4)nc4ccccc34)CC2)cc1 |  |  |  | concentration at 96 h [15]: 0.015 µg/mL; concentration at 96 h [16]: 0.054 µg/mL; IC50 [17]: 0.191 µM; IC50 [18]: > 10 µM; IC50 [19]: 254 µM
20 | O=C(CCN1CCCCC1)Nc1ccc2nc(-c3cc4ccccc4[nH]3)[nH]c(=O)c2c1 |  |  |  | IC50 [20]: 0.021 µM
21 | COc1cc2ncnc(N3CCN(Cc4ccc(Cl)cc4)CC3)c2cc1OC | 1.65 | 0.921 | > 10 | 
22 | COc1cc2c(Nc3ccc(C(=O)/C=C/c4nc(C)c(C)nc4C)cc3)ncnc2c(OC)c1OC |  |  |  | Activity [21]: 77%; inhibition [22]: 26.7%
